What was measured:
[1] = test system: EB5K and DG16 keratinocytes; assay: Colloidal gold salt migration assay using collagen I as a matrix; type: cell-based; settings: G418 8 μg/mL or gentamicin 200 μg/mL for 48 h; compared with normal human keratinocytes (IKC); FIG. 5
Protocol: In FIG. 5A, keratinocytes were either untreated or treated with G418 (8 μg/mL) or gentamicin (200 μg/mL) for 48 h and then subjected to colloidal gold salt migration assay using collagen I as a matrix. Representative fields were photographed at 40× under dark field optics. In FIG. 5B, migration index expresses the percentage of the total field area consumed by the migration tracks. Error bars, SD of three different experiments.

[2] = test system: Human epithelial (293 cells) transfected with nonsense mutation constructs; assay: Immunoblot (anti-NC1 antibody) of 293 cells transfected with COL7A1 nonsense mutation constructs; type: cell-based; settings: 293 cells with mutant constructs; for PTC read-through and full-length C7 production: G418 8 μg/mL or gentamicin 200 μg/mL for 48 h, FIG. 7
Protocol: For experimentation with cells containing different nonsense mutation in the COL7A1 gene, we used a C7 expression vector to introduce 30 nonsense mutations associated with RDEB via site-directed mutagenesis.
Human epithelial (293 cells) transfected with nonsense mutation constructs were treated with (FIG. 7A) G418 (8 μg/mL) and (FIG. 7B) gentamicin (200 μg/mL) for 48 h, lysed, and subjected to immunoblot analysis with an anti-NC1 antibody or anti-β-tubulin antibody (loading control).
In FIG. 8B, 293 cells transfected with the indicated mutant constructs were either untreated or treated with G418 (8 μg/mL) for 48 h, lysed and subjected to immunoblot analysis using an anti-NC1 antibody or anti-β-tubulin antibody (loading control).

RDEB keratinocytes = assay: Immunoblot (anti-NC1 antibody) for full-length C7 in RDEB keratinocytes treated with aminoglycosides; type: cell-based, human; settings: for read-through / full-length C7 production: 48 h, G418 8 μg/mL, gentamicin 200 μg/mL, paromomycin 200 μg/mL, amikacin 1 mg/mL, PTC 124 20 μg/mL, EB5K and DG16 keratinocytes, FIG. 1; for sustained C7 production: G418 8 μg/mL or gentamicin 200 μg/mL, lysed at 3, 5, or 8 days following treatment, FIG. 3; for dose dependence of full-length C7 production: varying concentrations, EB5K and DG16 lines, FIG. 2
Protocol: RDEB keratinocytes were treated for 48 h with either G418 (8 μg/mL), gentamicin (200 μg/mL), paromomcyin (200 μg/mL), amikacin (1 mg/mL), or PTC 124 (20 μg/mL). Cells were subsequently lysed and subjected to immunoblot analysis with anti-NC1 antibody or anti-β-tubulin antibody (loading control).
RDEB keratinocytes were treated with varying concentrations of G418 and Gentamicin. Cells were lysed and subjected to immunoblot analysis with an anti-NC1 or anti-β-tubulin antibody (loading control).
EB5K and D016 keratinocytes were treated with G418 (8 μg/mL) or gentamicin (200 μg/mL). Cells were lysed at 3, 5, or 8 days following treatment and subjected to immunoblot analysis with an anti-NC1 or anti-β-tubulin antibody.

[3] = test system: DG16 and EB5K keratinocytes; assay: Immunofluorescence staining for C7 with polyclonal anti-NC1 antibody; type: cell-based, human; settings: G418 8 μg/mL or gentamicin 200 μg/mL, FIG. 4
Excerpt: Normal human keratinocytes (IKC) were stained in parallel. […] In contrast, untreated parent keratinocytes entirely lacked C7expression.

Row | Compound | keratinocyte hypermotility (migration index) [1] | levels of truncated and full-length C7 production compared to untreated cells ([2]; G418 8 μg/mL for 48 h, FIG. 8B) | PTC read-through and full-length C7 production [2] | read-through / full-length C7 production (RDEB keratinocytes) | sustained C7 production (RDEB keratinocytes) | dose dependence of full-length C7 production (RDEB keratinocytes) | C7 staining (immunofluorescence) [3]
1 | CN[C@@H]1[C@@H](O)[C@@H](O[C@@H]2[C@@H](O)[C@H](O[C@H]3O[C@H]([C@@H](C)O)[C@@H](O)[C@H](O)[C@H]3N)[C@@H](N)C[C@H]2N)OC[C@]1(C)O [G418] | reversed their hypermotility phenotype to normal | significantly higher levels of truncated and full-length C7 production | induced PTC read-through and full-length C7 production | induced full-length C7 production in both EB5K and DG16 keratinocytes | induced sustained C7 production | induced full-length C7 production in a dose-dependent manner in both EB5K and DG16 lines | demonstrated C7 staining
2 | O=C(O)c1cccc(-c2noc(-c3ccccc3F)n2)c1 [PTC124, PTC 124] |  |  |  | did not cause read-through in either keratinocyte line |  |  | 
3 | gentamicin | reversed their hypermotility phenotype to normal |  | induced PTC read-through and full-length C7 production | induced full-length C7 production in both EB5K and DG16 keratinocytes | induced sustained C7 production | induced full-length C7 production in a dose-dependent manner in both EB5K and DG16 lines | demonstrated C7 staining
4 | NCC[C@H](O)C(=O)N[C@@H]1C[C@H](N)[C@@H](O[C@H]2O[C@H](CN)[C@@H](O)[C@H](O)[C@H]2O)[C@H](O)[C@H]1O[C@H]1O[C@H](CO)[C@@H](O)[C@H](N)[C@H]1O [Amikacin, amikacin] |  |  |  | did not cause read-through in either keratinocyte line |  |  | 
5 | NC[C@@H]1O[C@H](O[C@H]2[C@@H](O)[C@H](O[C@@H]3[C@@H](O)[C@H](N)C[C@H](N)[C@H]3O[C@H]3O[C@H](CO)[C@@H](O)[C@H](O)[C@H]3N)O[C@@H]2CO)[C@H](N)[C@@H](O)[C@@H]1O [Paromomycin, paromomycin] |  |  |  | induced read-through in DG16 cells only |  |  | 

Reference: patent US20130237485A1, “Methods and Agents for Enhancing Wound Healing” (UNIVERSITY OF SOUTHERN CALIFORNIA, priority 2010, published 2013)
